{
  "source": "patent US5250543A",
  "about": "“Derivatives of 1,4-dihydropyridine, their preparation procedure and therapeutic compositions containing them” (priority 1991, dated 1993)",
  "key": {"DHP membranous site": {"target": "DHP membranous site", "test": "Receptor binding at DHP membranous site with 3H-radiolabelled ligand isradipine", "conditions": "same value used as dose in aorta test, read-out: IC50 at the receptors", "protocol": "(§1) For this purpose, the IC50 values were at first determined at the receptors (on the DHP membranous site with ^3 H-radiolabelled ligand isradipine and with these doses the percentage of inhibition in the contraction of the isolated aorta was determined."}, "rat's isolated aorta": {"tested_on": "rat's isolated aorta", "test": "Calcium blocking activity in vitro: KCl contraction of the rat's isolated aorta", "type": "cell-based", "protocol": "The calcium blocking activity was determined in vitro by using the method of contracting the rat's isolated aorta with KCI (see Bernard Swynghedauw--Animal Experiments in Cardiology, Collection INSERM Medicine Sciences, Flammarion).\nas §1"}, "[1]": {"test": "Solubility in water (noted in preparation)", "type": "physicochemical", "conditions": "isolated powder, in words"}, "[2]": {"test": "Acute toxicity (intraperitoneal) in rats", "conditions": "rat, in vivo, ip, Sprague-Dawley rats, Example 1 given as 20 mg/ml aqueous suspension, nicardipine under the same conditions", "protocol": "The acute toxicity of the compound of example 1 was determined on rats injected intraperitoneally (Sprague-Dawley rats) and the product was administered as a 20 mg/ml aqueous suspension."}, "[3]": {"tested_on": "conscious Wistar rats suffering from genetic hypertension", "test": "Effects on mean arterial pressure and heartbeat frequency in conscious rats suffering from genetic hypertension", "type": "in vivo, rat (Wistar)", "conditions": "oral, 16 mg/kg; for Heartbeat frequency / tachycardiac effect (in words): early effect (nicardipine after five minutes)", "protocol": "The effects were tested using conscious Wistar rats suffering from genetic hypertension (6 rats per compound). The compounds were administered orally as a 16 mg/kg (under 5.3 ml/kg) dose in suspension."}, "[4]": {"tested_on": "histamine hyperpermeability in Sprague-Dawley rats", "test": "Effect on histamine hyperpermeability (Evan's Blue intradermal extravasation)", "type": "in vivo, rat (Sprague-Dawley)", "protocol": "The effect of CRL 41695 administered intraperitoneally on hystamine hyperpermeability was tested on Sprague-Dawley rats.\nThe parameter tested was the effect on Evan's Blue intradermal extravasation induced by histamine injection.\n24 hours after shaving and epilation of the rat's flanks, CRL 41695 was injected intraperitoneally at dose levels of 10 mg/kg (dispersed in 0.9% NaCl +5% carboxymethylcellulose) and 10 minutes later 0.25 ml/100 g of Evan's Blue at 2% injected intravenously.\n0.1 ml of 0.9% NaCl was then injected intradermally in the left flank and 0.01 ml of histamine ([…]) in the right flank.\nThe rats were sacrificed after 40 minutes and the injection sites removed. The Evan's Blue was extracted from the skin with 65% formamide and the solvent was removed by filtration. The optical density was determined as 620 nm."}},
  "note": "Counter-ions that a name gives are not always drawn.",
  "data": [
    {"smiles": "COC(=O)C1=C(C)NC(C)=C(C(=O)O[C@H]2CCCN(CCCC(=O)c3c(OC)cc(OC)cc3OC)C2)[C@H]1c1cccc([N+](=O)[O-])c1", "note": "(single isomer, unassigned) [Example 8, hydrochloride]", "values": [
      {"measurement": "IC50", "setting": "DHP membranous site", "result": 4, "unit": "nM"},
      {"measurement": "inhibition at 0.004 µM", "setting": "rat's isolated aorta; dose 4 × 10^-9 M (= receptor IC50)", "result": 40, "unit": "%"},
      {"measurement": "Solubility in water", "setting": "[1]", "result": "water-insoluble"}
    ]},
    {"smiles": "COC(=O)C1=C(C)NC(C)=C(C(=O)O[C@@H]2CCCN(CCCC(=O)c3c(OC)cc(OC)cc3OC)C2)[C@H]1c1cccc([N+](=O)[O-])c1", "note": "(single isomer, unassigned) [Example 9, hydrochloride]", "values": [
      {"measurement": "IC50", "setting": "DHP membranous site", "result": 0.6, "unit": "nM"},
      {"measurement": "inhibition at 0.0006 µM", "setting": "rat's isolated aorta; dose 6 × 10^-10 M (= receptor IC50)", "result": 60, "unit": "%"},
      {"measurement": "Solubility in water", "setting": "[1]", "result": "water-insoluble"}
    ]},
    {"smiles": "COC(=O)C1=C(C)NC(C)=C(C(=O)OC2CCCN(CCCC(=O)c3c(OC)cc(OC)cc3OC)C2)C1c1cccc([N+](=O)[O-])c1", "note": "(centres unmarked) [Example 1, 2,6-dimethyl-4-(3-nitro-phenyl)-5-methoxycarbonyl-1,4-dihydropyridine-3-carboxylic acid N-[3-(2,4,6-trimethoxybenzoyl)propyl]piperidine-3'-yl ester, hydrochloride]", "values": [
      {"measurement": "LD50", "setting": "[2]", "result": "249 ± 50", "unit": "mg/kg"},
      {"measurement": "Duration of significant hypotension", "setting": "[3]", "result": "at least 7 hours"},
      {"measurement": "Heartbeat frequency, variation after 5 mins", "setting": "[3]", "result": "+13%"},
      {"measurement": "Arterial pressure, variation after 3 hrs", "setting": "[3]", "result": -50, "unit": "%"},
      {"measurement": "Heartbeat frequency, variation after 5 hrs", "setting": "[3]", "result": 0, "unit": "%"},
      {"measurement": "Arterial pressure, variation after 7 hrs", "setting": "[3]", "result": -42, "unit": "%"},
      {"measurement": "Hypotension (in words)", "setting": "[3]; during at least 7 hours", "result": "significantly raised"},
      {"measurement": "Heartbeat frequency / tachycardiac effect (in words)", "setting": "[3]", "result": "only slightly increased"},
      {"measurement": "Secondary tachycardiac effect (in words)", "setting": "[3]", "result": "not found"},
      {"measurement": "Antihyperpermeable effect (intradermal concentration of Evan's Blue induced by histamine, in words)", "setting": "[4]; 10 mg/kg intraperitoneal", "result": "decrease greatly the intradermal concentration of Evan's Blue"},
      {"measurement": "Decrease in the intradermal concentration of Evan's Blue", "setting": "[4]; ip, 10 mg/kg", "result": 50, "unit": "%"},
      {"measurement": "Solubility in water", "setting": "[1]; hydrochloride", "result": "water-insoluble"}
    ]},
    {"smiles": "COC(=O)C1=C(C)NC(C)=C(C(=O)OC2CCCN(CCCC(=O)c3c(OC)cc(OC)cc3OC)C2)C1c1cccc([N+](=O)[O-])c1", "note": "(centres unmarked) [Example 2, 2,6-dimethyl-4-(-3-nitrophenyl)-5-methoxycarbonyl-1,4-dihydropyridine-3-carboxylic acid N-[3-(2,4,6,trimethoxybenzoyl)propyl]piperidine-3-yl ester]", "values": [
      {"measurement": "IC50", "setting": "DHP membranous site", "result": 10, "unit": "nM"},
      {"measurement": "inhibition at 0.01 µM", "setting": "rat's isolated aorta; dose 10^-8 M (= receptor IC50)", "result": 60, "unit": "%"},
      {"measurement": "Solubility in water", "setting": "[1]", "result": "soluble in water in the presence of acetic acid"}
    ]},
    {"smiles": "COC(=O)C1=C(C)NC(C)=C(C(=O)OCC2CCCN2CCCC(=O)c2c(OC)cc(OC)cc2OC)C1c1cccc([N+](=O)[O-])c1", "note": "(centres unmarked) [Example 3, 2,6-dimethyl-4-(3-nitrophenyl-5-methoxycarbonyl-1,4-dihydropyridine-3-carboxylic acid N-[3-(2,4,6-trimethoxybenzoyl)propyl]pyrrolidylmethyl ester, hydrochloride]", "values": [
      {"measurement": "Solubility in water", "setting": "[1]", "result": "water-insoluble"}
    ]},
    {"smiles": "COC(=O)C1=C(C)NC(C)=C(C(=O)O[C@H]2CCCN(CCCC(=O)c3c(OC)cc(OC)cc3OC)C2)[C@H]1c1cccc([N+](=O)[O-])c1", "note": "[Example 4, (+)(4S, 3'S) 2,6-dimethyl-4-(3-nitrophenyl)-5-methoxycarbonyl-1,4-dihydropyridine-3-carboxylic acid N-[3-(2,4,6-trimethoxybenzoyl)propyl]piperidine-3'-yl ester]", "values": [
      {"measurement": "IC50", "setting": "DHP membranous site", "result": 3, "unit": "nM"},
      {"measurement": "inhibition at 0.003 µM", "setting": "rat's isolated aorta; dose 3 × 10^-9 M (= receptor IC50)", "result": 70, "unit": "%"},
      {"measurement": "Solubility in water", "setting": "[1]", "result": "water-insoluble"}
    ]},
    {"smiles": "COC(=O)C1=C(C)NC(C)=C(C(=O)O[C@@H]2CCCN(CCCC(=O)c3c(OC)cc(OC)cc3OC)C2)[C@@H]1c1cccc([N+](=O)[O-])c1", "note": "[Example 5, (-)(4R, 3'R) 2,6-dimethyl-4-(3-nitrophenyl)-5-methoxycarbonyl-1,4-dihydropyridine-3-carboxylic acid N-[3-(2,4,6-trimethoxybenzoyl)propyl]piperidine-3-yl ester]", "values": [
      {"measurement": "Solubility in water", "setting": "[1]", "result": "water-insoluble"}
    ]},
    {"smiles": "COC(=O)C1=C(C)NC(C)=C(C(=O)O[C@H]2CCCN(CCCC(=O)c3c(OC)cc(OC)cc3OC)C2)[C@@H]1c1cccc([N+](=O)[O-])c1", "note": "[Example 6, (+)(4R, 3'S) 2,6-dimethyl-4-(3-nitrophenyl)-5-methoxycarbonyl-1,4-dihydropyridine-3-carboxylic acid N-[3-(2,4,6-trimethoxybenzoyl)propyl]piperidine-3'-yl ester]", "values": [
      {"measurement": "Solubility in water", "setting": "[1]", "result": "water-insoluble"}
    ]},
    {"smiles": "COC(=O)C1=C(C)NC(C)=C(C(=O)O[C@@H]2CCCN(CCCC(=O)c3c(OC)cc(OC)cc3OC)C2)[C@H]1c1cccc([N+](=O)[O-])c1", "note": "[Example 7, (-)(4S, 3'R) 2,6-dimethyl-4-(3-nitrophenyl)-5-methoxycarbonyl-1,4-dihydropyridine-3-carboxylic acid N-[3-(2,4,6-trimethoxybenzoyl)propyl]piperidine-3'-yl ester]", "values": [
      {"measurement": "IC50", "setting": "DHP membranous site", "result": 2, "unit": "nM"},
      {"measurement": "inhibition at 0.002 µM", "setting": "rat's isolated aorta; dose 2 × 10^-9 M (= receptor IC50)", "result": 80, "unit": "%"},
      {"measurement": "Solubility in water", "setting": "[1]", "result": "water-insoluble"}
    ]},
    {"smiles": "COC(=O)C1=C(C)NC(C)=C(C(=O)OC2CCCN(CCCC(=O)c3c(OC)cc(OC)cc3OC)C2)C1c1cccc([N+](=O)[O-])c1", "note": "(centres unmarked) [Example 10, 2,6-dimethyl-4-(3-nitrophenyl)-5-methoxycarbonyl-1,4-dihydropyridine-3-carboxylic acid N-[3-(2,4,6-trimethoxybenzoyl)propyl]piperidine-3'-yl, lactate]", "values": [
      {"measurement": "Solubility in water", "setting": "[1]", "result": "soluble in cold water but is precipitated on warming"}
    ]},
    {"smiles": "COC(=O)C1=C(C)NC(C)=C(C(=O)OC2CCCN(CCCC(=O)c3c(OC)cc(OC)cc3OC)C2)C1c1cccc([N+](=O)[O-])c1", "note": "(centres unmarked) [Example 11, 2,6-dimethyl-4-(3-nitrophenyl)-5-methoxycarbonyl-1,4-dihydropyridine-3-carboxylic acid N-[3-(2,4,6-trimethoxybenzoyl)propyl]piperidine-3'-yl ester, glutamate]", "values": [
      {"measurement": "Solubility in water", "setting": "[1]", "result": "water-insoluble"}
    ]},
    {"smiles": "COC(=O)C1=C(C)NC(C)=C(C(=O)OC2CCCN(CCCC(=O)c3c(OC)cc(OC)cc3OC)C2)C1c1cccc([N+](=O)[O-])c1", "note": "(centres unmarked) [Example 12, 2,6-dimethyl-4-(3-nitrophenyl)-5-methoxycarbonyl-1,4-dihydropyridine-3-carboxylic acid N-[3-(2,4,6-trimethoxybenzoyl)propyl]piperidine-3'-yl ester, aspartate]", "values": [
      {"measurement": "Solubility in water", "setting": "[1]", "result": "water-insoluble"}
    ]},
    {"smiles": "COC(=O)C1=C(C)NC(C)=C(C(=O)OCCN(C)Cc2ccccc2)C1c1cccc([N+](=O)[O-])c1", "note": "(centres unmarked) [nicardipine, reference compound]", "values": [
      {"measurement": "LD50", "setting": "[2]", "result": "233 ± 65", "unit": "mg/kg"},
      {"measurement": "Time of maximum secondary tachycardiac effect", "setting": "[3]", "result": 5, "unit": "h"},
      {"measurement": "Heartbeat frequency, variation after 5 mins", "setting": "[3]", "result": "+32%"},
      {"measurement": "Arterial pressure, variation after 3 hrs", "setting": "[3]", "result": -39, "unit": "%"},
      {"measurement": "Heartbeat frequency, variation after 5 hrs", "setting": "[3]", "result": "+23%"},
      {"measurement": "Arterial pressure, variation after 7 hrs", "setting": "[3]", "result": -27, "unit": "%"},
      {"measurement": "Heartbeat frequency / tachycardiac effect (in words)", "setting": "[3]", "result": "clear tachycardiac effect after five minutes"},
      {"measurement": "Secondary tachycardiac effect (in words)", "setting": "[3]", "result": "secondary tachycardiae effect was also observed"}
    ]}
  ]
}
